Experimental data from ChEMBL document CHEMBL1201862, “PubChem BioAssay data set” (2004).
Active and inactive are the calls of the source.

Legend:
[1] = target: T1, Sentrin-specific protease 7 (Homo sapiens, UniProt Q9BQF6); type: functional;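 note: Luminescence-based dose-response confirmation of ultra-high-throughput screening hits, measuring inhibition of SENP7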
T1 sequence (Q9BQF6 whole entry): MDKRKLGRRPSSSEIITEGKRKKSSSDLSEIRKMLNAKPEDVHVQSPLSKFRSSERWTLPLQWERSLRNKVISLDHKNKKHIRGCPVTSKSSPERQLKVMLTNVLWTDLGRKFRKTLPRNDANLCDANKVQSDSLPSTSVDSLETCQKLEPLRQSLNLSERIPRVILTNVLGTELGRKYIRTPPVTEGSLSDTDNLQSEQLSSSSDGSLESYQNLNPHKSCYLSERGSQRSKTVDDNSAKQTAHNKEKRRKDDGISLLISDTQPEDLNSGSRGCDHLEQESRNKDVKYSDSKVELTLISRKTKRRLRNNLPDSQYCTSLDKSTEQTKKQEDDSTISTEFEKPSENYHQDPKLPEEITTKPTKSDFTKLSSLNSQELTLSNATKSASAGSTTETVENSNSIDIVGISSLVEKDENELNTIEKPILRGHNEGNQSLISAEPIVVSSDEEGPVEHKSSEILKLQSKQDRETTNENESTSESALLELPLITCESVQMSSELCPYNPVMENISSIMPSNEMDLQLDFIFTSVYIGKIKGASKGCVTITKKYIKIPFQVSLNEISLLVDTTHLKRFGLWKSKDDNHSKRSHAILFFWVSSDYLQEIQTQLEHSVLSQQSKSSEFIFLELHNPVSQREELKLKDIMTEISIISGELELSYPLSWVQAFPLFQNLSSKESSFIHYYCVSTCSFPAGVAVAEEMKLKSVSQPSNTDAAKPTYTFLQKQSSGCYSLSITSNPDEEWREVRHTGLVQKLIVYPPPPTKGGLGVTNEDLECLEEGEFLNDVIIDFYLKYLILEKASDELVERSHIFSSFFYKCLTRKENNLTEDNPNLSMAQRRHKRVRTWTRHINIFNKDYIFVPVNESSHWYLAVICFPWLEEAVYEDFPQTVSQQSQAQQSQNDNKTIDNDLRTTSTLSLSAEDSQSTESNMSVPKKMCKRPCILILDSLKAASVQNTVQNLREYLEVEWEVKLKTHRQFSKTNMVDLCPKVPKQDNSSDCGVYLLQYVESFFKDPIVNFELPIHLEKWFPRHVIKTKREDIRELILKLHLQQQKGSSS

Caspase-3 = target: T2, Caspase-3 (Homo sapiens, UniProt P42574); type: functional;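 note: Dose-response selectivity test against caspase-3 for candidate inhibitors of sentrin-specific proteases (SENPs)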
T2 sequence (P42574 whole entry): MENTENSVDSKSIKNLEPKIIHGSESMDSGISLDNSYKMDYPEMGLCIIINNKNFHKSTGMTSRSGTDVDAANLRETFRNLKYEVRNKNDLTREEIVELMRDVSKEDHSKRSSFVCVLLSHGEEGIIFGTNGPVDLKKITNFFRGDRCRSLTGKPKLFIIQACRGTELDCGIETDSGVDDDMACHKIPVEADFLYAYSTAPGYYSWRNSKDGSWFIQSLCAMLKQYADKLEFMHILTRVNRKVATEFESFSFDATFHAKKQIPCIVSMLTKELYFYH

[2] = target: T3, Sentrin-specific protease 8 (Homo sapiens, UniProt Q96LD8); type: functional;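 note: luminescence read-out of SENP8 inhibition, dose-response confirmation following an ultra-high-throughput screen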
T3 sequence (Q96LD8 whole entry): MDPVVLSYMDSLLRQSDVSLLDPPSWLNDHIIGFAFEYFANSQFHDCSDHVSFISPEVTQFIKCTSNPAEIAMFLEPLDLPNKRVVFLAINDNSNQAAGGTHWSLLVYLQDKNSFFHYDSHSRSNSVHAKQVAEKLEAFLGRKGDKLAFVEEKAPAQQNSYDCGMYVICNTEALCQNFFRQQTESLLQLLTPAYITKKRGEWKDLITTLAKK

[3] = target: T4, Sentrin-specific protease 6 (Homo sapiens, UniProt Q9GZR1); type: functional;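 note: Luminescence-based dose-response confirmatory assay of SENP6 inhibition, following up an ultra-high-throughput screen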
T4 sequence (Q9GZR1 whole entry): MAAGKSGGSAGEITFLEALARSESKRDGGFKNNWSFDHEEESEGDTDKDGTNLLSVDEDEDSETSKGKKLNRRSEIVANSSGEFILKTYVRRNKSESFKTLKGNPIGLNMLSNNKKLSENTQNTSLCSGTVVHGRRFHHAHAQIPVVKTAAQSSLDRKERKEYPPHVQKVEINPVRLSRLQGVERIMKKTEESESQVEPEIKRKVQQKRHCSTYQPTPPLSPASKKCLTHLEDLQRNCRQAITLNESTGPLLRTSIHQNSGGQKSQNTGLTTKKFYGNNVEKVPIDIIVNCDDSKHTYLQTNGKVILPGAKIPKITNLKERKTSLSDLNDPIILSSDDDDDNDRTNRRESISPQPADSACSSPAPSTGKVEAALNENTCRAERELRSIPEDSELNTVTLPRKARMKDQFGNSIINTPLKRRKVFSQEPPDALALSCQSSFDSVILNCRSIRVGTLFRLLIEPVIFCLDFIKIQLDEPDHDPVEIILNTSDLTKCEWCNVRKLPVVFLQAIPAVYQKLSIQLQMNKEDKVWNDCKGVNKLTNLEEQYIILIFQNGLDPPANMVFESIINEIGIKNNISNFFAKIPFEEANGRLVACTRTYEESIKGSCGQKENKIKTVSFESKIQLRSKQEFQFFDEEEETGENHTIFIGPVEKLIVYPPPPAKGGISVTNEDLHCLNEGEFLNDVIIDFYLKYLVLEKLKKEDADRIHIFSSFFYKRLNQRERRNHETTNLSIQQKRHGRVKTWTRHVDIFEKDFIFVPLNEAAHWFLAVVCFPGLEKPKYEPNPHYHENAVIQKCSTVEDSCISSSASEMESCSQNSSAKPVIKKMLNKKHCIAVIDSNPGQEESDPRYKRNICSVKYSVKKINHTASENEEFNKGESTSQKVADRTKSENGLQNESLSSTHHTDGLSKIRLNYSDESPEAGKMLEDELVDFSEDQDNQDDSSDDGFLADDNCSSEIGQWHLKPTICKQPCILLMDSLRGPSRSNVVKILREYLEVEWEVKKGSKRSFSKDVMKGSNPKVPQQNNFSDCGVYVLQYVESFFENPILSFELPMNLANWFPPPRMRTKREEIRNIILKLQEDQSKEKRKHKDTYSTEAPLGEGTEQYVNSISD

[4] = target: T5, Mitochondrial peptide methionine sulfoxide reductase (Bos taurus, UniProt P54149); experiment: Absorbance-based biochemical high throughput dose response assay for activators of Methionine sulfoxide reductase A (MsrA).; type: functional
T5 sequence (P54149 whole entry): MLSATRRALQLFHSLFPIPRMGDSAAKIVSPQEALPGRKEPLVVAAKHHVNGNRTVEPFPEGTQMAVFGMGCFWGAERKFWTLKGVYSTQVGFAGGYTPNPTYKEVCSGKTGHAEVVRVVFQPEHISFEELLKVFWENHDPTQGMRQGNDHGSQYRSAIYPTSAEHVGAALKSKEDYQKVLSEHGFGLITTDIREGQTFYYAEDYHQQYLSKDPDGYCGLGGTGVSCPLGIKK

[5] = target: T6, DNA repair protein RAD52 homolog (Homo sapiens, UniProt P43351); type: functional, biochemical
T6 sequence (P43351 whole entry): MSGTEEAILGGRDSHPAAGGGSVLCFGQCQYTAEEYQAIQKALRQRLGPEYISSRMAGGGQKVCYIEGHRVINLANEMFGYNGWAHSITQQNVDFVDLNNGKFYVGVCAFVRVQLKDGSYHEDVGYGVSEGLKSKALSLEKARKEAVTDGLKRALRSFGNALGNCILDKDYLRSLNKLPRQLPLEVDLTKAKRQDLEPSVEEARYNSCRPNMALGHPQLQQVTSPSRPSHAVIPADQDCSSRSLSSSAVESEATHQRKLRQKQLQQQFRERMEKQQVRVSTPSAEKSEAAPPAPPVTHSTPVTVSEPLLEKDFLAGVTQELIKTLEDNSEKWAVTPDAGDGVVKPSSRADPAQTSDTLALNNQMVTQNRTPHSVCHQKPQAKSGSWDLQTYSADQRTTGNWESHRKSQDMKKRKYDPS

Albumin = Albumin (Bos taurus, UniProt P02769); experiment: Counterscreen for inhibitors of T-cell receptor (TCR)-CD3 interaction: Fluorescence-based biochemical high throughput dose response assay to identify inhibitors of T-cell receptor (TCR)-CD3 interaction using a TAMRA-labeled BSA probe.; type: functional
[6] = target: T7, Low molecular weight phosphotyrosine protein phosphatase (Homo sapiens, UniProt P24666); type: functional; conditions: read-out: IC50_Mean;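 note: Dose-response confirmation assay measuring inhibition of LMPTP enzyme activity by fluorescence intensity read-out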
T7 sequence (P24666 whole entry): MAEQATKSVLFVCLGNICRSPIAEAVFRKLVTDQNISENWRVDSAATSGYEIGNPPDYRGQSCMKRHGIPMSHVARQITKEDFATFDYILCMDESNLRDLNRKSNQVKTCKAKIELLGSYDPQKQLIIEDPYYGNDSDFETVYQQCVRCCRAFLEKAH

[7] = target: T8, Ubiquitin-conjugating enzyme E2 N (Homo sapiens, UniProt P61088); type: functional;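 note: Dose-response confirmation in a TR-FRET assay detecting UBC13-driven polyubiquitin chain formation, inhibition measured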
T8 sequence (P61088 whole entry): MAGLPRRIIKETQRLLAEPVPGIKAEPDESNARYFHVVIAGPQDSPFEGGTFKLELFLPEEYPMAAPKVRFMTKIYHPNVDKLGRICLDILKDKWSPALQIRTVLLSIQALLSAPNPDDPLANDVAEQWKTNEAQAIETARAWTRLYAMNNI

[8] = target: T9, Corticotropin-releasing factor receptor 2/Corticotropin-releasing factor-binding protein (Homo sapiens, UniProt P24387+Q13324); experiment: activators of CRF receptor 2 with binding protein – uHTS hits, confirmation (AID 602473); type: functional; conditions: read-out: EC50_Mean
T9 sequence (Q13324 whole entry): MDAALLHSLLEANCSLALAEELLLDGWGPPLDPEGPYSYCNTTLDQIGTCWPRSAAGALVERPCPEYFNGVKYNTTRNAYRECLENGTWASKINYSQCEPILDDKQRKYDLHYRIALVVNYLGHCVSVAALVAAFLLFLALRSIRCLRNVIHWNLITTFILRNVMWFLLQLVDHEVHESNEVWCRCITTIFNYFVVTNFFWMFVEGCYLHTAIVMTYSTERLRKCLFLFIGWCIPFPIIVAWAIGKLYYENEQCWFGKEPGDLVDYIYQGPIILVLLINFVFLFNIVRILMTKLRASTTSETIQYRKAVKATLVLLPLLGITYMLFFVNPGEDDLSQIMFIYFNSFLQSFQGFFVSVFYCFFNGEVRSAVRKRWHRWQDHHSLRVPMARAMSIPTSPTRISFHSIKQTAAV
T9 sequence (P24387 whole entry): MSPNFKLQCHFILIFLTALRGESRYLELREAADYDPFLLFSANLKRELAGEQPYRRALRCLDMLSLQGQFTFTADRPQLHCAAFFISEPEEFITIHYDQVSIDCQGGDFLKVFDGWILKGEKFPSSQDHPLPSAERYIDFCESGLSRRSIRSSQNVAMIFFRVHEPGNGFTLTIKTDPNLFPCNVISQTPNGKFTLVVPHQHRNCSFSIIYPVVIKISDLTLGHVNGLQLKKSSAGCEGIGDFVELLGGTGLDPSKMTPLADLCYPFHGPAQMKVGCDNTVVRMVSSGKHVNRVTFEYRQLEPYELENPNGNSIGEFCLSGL

[9] = blockers of CRF-binding protein–CRF-R2 complex – cell-based, uHTS hits, 384-well, dose response (AID 651639); type: functional, Homo sapiens; conditions: read-out: IC50_Mean
[10] = target: T9, Corticotropin-releasing factor receptor 2/Corticotropin-releasing factor-binding protein; experiment: Dose Response confirmation of uHTS hits for small molecule antagonists of the CRF-binding protein and CRF-R2 receptor complex.; type: functional; conditions: read-out: IC50_Mean
[11] = target: Tyrosine-protein phosphatase non-receptor type 5 (Homo sapiens, UniProt P54829); experiment: PTPN5 enzyme inhibition – biochemical, fluorescence intensity, uHTS hits, confirmation (AID 602372); type: functional; conditions: read-out: IC50_Mean
[12] = target: Dual specificity protein phosphatase 3 (Homo sapiens, UniProt P51452); experiment: VHR phosphatase inhibition, dose response, selectivity assay for STEP inhibitor project, biochemical (AID 602374); type: functional; conditions: read-out: IC50_Mean
[13] = target: Tyrosine-protein phosphatase non-receptor type 11 (Homo sapiens, UniProt Q06124); experiment: PTPN11 enzyme inhibitors – biochemical, selectivity assay for STEP inhibitor project, dose response (AID 602367); type: functional; conditions: read-out: IC50_Mean
[14] = target: DNA repair and recombination protein RAD54-like (Homo sapiens, UniProt Q92698); experiment: RAD54 Holliday junction migration blockers – biochemical, fluorescence, cherry-picked samples, dose series, confirmation (AID 651657); type: functional
[15] = target: DNA (cytosine-5)-methyltransferase 1 (Homo sapiens, UniProt P26358); experiment: inhibition of DNA methylation by DNMT1 – biochemical, fluorescent molecular beacon, confirmation (AID 602386); type: functional
Chain of DNA (cytosine-5)-methyltransferase 1 (P26358 whole entry): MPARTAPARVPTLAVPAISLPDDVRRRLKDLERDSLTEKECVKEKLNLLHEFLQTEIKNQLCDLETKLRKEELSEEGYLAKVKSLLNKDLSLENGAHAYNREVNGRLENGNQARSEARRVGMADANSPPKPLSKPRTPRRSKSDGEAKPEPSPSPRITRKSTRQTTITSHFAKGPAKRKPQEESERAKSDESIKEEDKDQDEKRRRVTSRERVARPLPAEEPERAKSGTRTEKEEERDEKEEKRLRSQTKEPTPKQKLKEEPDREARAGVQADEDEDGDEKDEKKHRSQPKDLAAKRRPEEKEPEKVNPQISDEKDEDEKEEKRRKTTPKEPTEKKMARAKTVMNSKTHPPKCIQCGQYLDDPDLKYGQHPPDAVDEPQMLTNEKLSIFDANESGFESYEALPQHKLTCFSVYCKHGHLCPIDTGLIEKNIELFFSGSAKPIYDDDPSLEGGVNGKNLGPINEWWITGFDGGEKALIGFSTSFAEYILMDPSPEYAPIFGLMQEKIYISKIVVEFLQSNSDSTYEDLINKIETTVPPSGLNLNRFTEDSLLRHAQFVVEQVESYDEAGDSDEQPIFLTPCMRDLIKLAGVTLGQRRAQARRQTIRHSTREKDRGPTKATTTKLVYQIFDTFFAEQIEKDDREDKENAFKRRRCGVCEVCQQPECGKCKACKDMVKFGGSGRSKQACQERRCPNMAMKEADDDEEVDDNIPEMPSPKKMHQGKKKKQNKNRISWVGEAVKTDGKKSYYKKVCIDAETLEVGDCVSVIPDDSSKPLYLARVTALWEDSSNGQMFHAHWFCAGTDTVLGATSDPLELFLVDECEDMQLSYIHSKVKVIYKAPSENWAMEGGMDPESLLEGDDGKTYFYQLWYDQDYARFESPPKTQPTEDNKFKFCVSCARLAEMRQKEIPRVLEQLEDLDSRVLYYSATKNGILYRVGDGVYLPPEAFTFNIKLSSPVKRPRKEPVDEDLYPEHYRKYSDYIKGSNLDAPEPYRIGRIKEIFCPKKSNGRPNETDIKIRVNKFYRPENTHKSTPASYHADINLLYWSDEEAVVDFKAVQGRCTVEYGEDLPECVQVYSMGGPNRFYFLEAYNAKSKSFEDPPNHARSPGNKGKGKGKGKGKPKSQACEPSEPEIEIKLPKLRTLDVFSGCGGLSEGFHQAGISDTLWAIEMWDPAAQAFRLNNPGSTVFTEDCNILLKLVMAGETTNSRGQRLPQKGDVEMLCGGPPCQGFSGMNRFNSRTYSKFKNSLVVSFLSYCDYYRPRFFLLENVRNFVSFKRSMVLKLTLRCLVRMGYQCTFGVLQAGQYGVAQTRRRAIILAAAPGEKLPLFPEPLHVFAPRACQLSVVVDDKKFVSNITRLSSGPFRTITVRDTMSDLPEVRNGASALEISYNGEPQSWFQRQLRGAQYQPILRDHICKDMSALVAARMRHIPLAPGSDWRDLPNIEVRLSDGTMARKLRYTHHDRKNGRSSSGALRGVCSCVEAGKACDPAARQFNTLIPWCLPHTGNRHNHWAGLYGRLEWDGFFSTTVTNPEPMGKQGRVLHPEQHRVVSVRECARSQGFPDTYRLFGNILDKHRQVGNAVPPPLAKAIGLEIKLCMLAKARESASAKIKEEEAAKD

Chain of Tyrosine-protein phosphatase non-receptor type 5 (P54829 whole entry): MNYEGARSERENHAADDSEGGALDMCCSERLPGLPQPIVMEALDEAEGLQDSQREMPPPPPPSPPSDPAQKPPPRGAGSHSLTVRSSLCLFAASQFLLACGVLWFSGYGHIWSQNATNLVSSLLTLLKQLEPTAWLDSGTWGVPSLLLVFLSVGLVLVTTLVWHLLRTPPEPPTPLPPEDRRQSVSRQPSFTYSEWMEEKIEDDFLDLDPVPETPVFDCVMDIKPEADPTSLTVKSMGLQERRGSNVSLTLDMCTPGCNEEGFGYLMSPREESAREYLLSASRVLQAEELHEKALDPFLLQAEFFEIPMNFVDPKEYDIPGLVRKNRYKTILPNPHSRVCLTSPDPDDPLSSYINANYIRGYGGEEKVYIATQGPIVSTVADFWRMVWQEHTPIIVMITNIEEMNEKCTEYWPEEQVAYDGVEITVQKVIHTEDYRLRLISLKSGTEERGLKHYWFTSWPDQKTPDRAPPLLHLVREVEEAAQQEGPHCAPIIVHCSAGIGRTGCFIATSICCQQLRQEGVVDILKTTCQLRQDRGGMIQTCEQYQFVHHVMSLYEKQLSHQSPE
Chain of Tyrosine-protein phosphatase non-receptor type 11 (Q06124 whole entry): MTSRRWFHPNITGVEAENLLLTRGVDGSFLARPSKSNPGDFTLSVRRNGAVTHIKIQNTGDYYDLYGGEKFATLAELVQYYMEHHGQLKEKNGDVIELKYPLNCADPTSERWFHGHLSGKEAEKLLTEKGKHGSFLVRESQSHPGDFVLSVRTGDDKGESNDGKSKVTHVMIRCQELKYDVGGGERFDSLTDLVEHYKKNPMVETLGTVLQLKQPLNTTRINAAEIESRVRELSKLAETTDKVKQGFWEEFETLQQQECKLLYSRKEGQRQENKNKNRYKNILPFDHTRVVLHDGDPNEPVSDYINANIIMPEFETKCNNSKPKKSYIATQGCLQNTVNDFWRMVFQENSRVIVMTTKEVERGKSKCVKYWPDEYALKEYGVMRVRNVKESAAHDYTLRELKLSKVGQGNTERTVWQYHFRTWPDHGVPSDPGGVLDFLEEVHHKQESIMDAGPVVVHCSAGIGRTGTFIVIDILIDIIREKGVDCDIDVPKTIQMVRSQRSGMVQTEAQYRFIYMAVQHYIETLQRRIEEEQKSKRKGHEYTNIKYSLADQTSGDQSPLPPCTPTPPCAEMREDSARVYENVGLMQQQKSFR
Chain of Albumin (P02769 whole entry): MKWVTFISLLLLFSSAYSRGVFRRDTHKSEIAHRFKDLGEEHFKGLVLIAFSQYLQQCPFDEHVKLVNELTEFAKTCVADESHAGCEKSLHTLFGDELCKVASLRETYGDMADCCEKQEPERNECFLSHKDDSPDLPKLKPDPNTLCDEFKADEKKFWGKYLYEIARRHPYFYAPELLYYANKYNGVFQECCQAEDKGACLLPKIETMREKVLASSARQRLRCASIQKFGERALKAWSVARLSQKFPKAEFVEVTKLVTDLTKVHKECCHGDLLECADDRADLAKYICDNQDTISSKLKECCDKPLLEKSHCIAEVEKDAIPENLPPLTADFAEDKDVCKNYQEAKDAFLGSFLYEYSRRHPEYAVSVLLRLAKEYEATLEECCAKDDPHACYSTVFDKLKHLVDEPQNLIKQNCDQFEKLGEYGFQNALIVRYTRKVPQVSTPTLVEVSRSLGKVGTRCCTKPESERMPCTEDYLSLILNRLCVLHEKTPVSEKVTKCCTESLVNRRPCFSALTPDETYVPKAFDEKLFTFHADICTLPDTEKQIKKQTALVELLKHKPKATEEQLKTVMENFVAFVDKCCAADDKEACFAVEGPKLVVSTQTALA
Chain of Dual specificity protein phosphatase 3 (P51452 whole entry): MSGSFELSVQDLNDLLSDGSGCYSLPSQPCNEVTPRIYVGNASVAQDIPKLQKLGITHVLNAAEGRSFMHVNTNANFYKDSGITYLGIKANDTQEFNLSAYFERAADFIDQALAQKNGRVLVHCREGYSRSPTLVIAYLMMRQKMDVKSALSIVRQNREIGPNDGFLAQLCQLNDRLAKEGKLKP
Chain of DNA repair and recombination protein RAD54-like (Q92698 whole entry): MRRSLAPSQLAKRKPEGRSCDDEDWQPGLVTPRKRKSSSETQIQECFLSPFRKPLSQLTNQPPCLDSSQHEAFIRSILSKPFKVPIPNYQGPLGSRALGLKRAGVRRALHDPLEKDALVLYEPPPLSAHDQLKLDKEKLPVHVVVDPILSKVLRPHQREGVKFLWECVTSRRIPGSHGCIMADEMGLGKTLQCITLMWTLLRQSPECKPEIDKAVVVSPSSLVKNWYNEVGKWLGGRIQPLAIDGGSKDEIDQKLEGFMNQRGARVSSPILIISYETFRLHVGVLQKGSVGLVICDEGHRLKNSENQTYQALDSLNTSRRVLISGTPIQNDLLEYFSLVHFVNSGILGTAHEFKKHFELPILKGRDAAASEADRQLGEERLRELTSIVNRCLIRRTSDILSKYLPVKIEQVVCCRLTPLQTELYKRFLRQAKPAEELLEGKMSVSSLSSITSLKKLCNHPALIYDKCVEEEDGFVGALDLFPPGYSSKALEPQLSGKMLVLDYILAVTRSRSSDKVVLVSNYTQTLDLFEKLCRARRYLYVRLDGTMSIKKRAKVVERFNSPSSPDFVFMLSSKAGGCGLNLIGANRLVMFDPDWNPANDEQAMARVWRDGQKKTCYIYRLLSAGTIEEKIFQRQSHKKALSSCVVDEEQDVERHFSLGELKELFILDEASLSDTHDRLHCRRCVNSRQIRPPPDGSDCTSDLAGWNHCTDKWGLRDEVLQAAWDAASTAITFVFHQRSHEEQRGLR

With `COc1ccc(S(=O)(=O)N2CCOCC2)cc1NC(=O)COC(=O)c1ccc([N+](=O)[O-])s1` the IC50 [1] was 9.28 µM (active), the IC50 (Caspase-3) was 17.1 µM (active) and the IC50 [2] was 6.06 µM (active). The IC50 [3] was 6.27 µM (active) and the EC50 [4] was 40 µM (inactive).
In the case of `Cc1ccc(-c2nc3cc(C(=O)NCCCn4ccnc4)ccc3c(O)c2O)cc1`, the AC50 [5] was 7.05 µM (active), the IC50 (Albumin) was > 94.1 µM (inactive) and the IC50 [6] was 16 µM (active). For the same compound, the IC50 [7] was > 20 µM (inactive).
With `O=C(COC(=O)C1(c2ccc(F)cc2)CCCC1)NCc1ccc2c(c1)OCO2` the EC50 [8] was > 53 µM (inactive), the IC50 [9] was 11.1 µM (active) and the IC50 [10] was < 0.368 µM (active).
With `COc1cc(Cl)ccc1N=C(S)N(CCCN1CCOCC1)Cc1cn(C)c2ccccc12` the IC50 [11] was 20.8 µM (inactive), the IC50 [12] was 1.03 µM (active) and the IC50 [13] was 2.07 µM (active).
In the case of `O=C(Nc1ccccc1)c1cc(S(=O)(=O)N2CCOCC2)cs1`, the AC50 [14] was 70.3 µM (active).
For `O=C1Nc2c(Cl)cc(Cl)cc2C1=O`, the EC50 [4] was > 104 µM (inactive) and the IC50 [15] was 11.8 µM (active).
